Counter-ions that a name gives are not always drawn. Like-named read-outs stand apart in the source and are kept apart here.
What was measured:
[1] = system: M. tuberculosis strain Erdman; assay type: in vivo; settings: day 24, C57BL/6 GKO mice
[2] = system: M. tuberculosis strain Erdman; assay type: in vivo; settings: C57BL/6 GKO mice; for log 10 CFU for lungs: day 22, lungs; for log 10 CFU for spleens: day 22, spleens

SMILES: CCOc1ccc(Cl)c2c1B(O)O[C@@H]2CN.Cl (single isomer, unassigned) [L]
- log 10 CFU/lung ([1]; 100 mg/kg QD PO): 3.08 (0.06) log 10 CFU/lung

SMILES: CCOc1ccc(Br)c2c1B(O)OC2CN (stereo not shown) [E, 3-(Aminomethyl)-4-bromo-7-ethoxybenzo[c][1,2]oxaborol-1(3H)-ol 2,2,2-trifluoroacetate Salt]
- log 10 CFU/lung ([1]; 100 mg/kg BID PO): 2.73 (0.05) log 10 CFU/lung
- log 10 CFU for lungs ([2]; 100 mg/kg QD PO): 5.27 (0.12) log 10 CFU
- log 10 CFU for spleens ([2]; 100 mg/kg QD PO): 4.27 (0.25) log 10 CFU

SMILES: CCOc1ccc(F)c2c1B(O)OC2CN.Cl (stereo not shown) [C, 3-Aminomethyl-7-ethoxy-4-fluoro-3H-benzo[c][1,2]-oxaborol-1-ol; Hydrochloride]
- log 10 CFU/lung ([1]; 100 mg/kg BID PO): 5.06 (0.26) log 10 CFU/lung

SMILES: CO[C@H]1/C=C/O[C@@]2(C)Oc3c(C)c(O)c4c(O)c(c(/C=N/N5CCN(C)CC5)c(O)c4c3C2=O)NC(=O)/C(C)=C\C=C\[C@H](C)[C@H](O)[C@@H](C)[C@@H](O)[C@@H](C)[C@H](OC(C)=O)[C@@H]1C [rifampicin, reference compound]
- log 10 CFU/lung ([1]; 10 mg/kg QD PO): 6.16 (0.10) log 10 CFU/lung

SMILES: NNC(=O)c1ccncc1 [INH, Isoniazid, reference compound]
- log 10 CFU for lungs ([2]; 25 mg/kg QD PO): 5.29 (0.13) log 10 CFU
- log 10 CFU for spleens ([2]; 25 mg/kg QD PO): 4.27 (0.25) log 10 CFU

SMILES: CCOc1ccc(F)c2c1B(O)O[C@@H]2CN.Cl (single isomer, unassigned) [N]
- log 10 CFU for lungs ([2]; 100 mg/kg BID PO): 5.51 (0.09) log 10 CFU
- log 10 CFU for spleens ([2]; 100 mg/kg BID PO): 2.42 (0.48) log 10 CFU
